Like-named read-outs stand apart in the source and are kept apart here.
How the values were obtained:
[1] = system: LO2 human normal hepatocytes; assay: MTT cytotoxicity assay LO2; format: cell-based; conditions: Hepatocyte, 72 h, read-out: IC50 LO2
Procedure: (§1) Proliferative and non-proliferative mammalian cell lines: human liver and lung cancer cell lines HepG2 and A549, and immortalized normal liver LO2 and lung BEAS-2B cells were purchased from ATCC (Manassas, VA, United States). Cells were cultured in RPMI-1640 medium supplemented with 10% fetal bovine serum and antibiotics penicillin (50 U/mL) and streptomycin (50 μg/ml; Invitrogen, United Kingdom). All cells were incubated at 37°C in a 5% humidified CO2 incubator.
(§2) All test compounds were dissolved in DMSO at a final concentration of 50 mM and stored at −20°C before use. Cytotoxicity was assessed with A549, HepG2, BEAS-2B and LO2 cells. The MTT assay with 3-(4,5-dimethylthiazole-2yl)-2,5-diphenyltetrazolium bromide (5 mg/ml) was performed as previously described ([Ng et al., 2022]). Briefly, 4 × 10^3 cells per well were seeded in 96-well plates before drug treatment. After overnight cell culture, the cells were exposed to different concentrations of selected compounds (0.19–100 μM) for 72 h. Cells without drug treatment were used as control. Next, 10 μl of the MTT solution was added to each well and incubated at 37°C for another 4 h. Solubilization buffer (100 μl) was then added (10 mM HCl in a solution of 10% of SDS) and incubated overnight. The absorbance A at 570 nm was measured on the next day. The percentage of cell viability was calculated using the following formula: Cell viability (%) = Atreated/Acontrol × 100. Dose response curves for all assays are given in the Supplementary Figures S3–S6.
(§3) Cytotoxicity was assessed for each of artemisinin, DHA and artemether, and the amino-artemisinins artemiside and artemisone, and celastrol against A549 human lung carcinoma, BEAS-2B non-tumorigenic human bronchial epithelium, HepG2 liver hepatocellular carcinoma and LO2 human normal hepatocytes using the MTT assay ([Ng et al., 2022]). Data are presented in Table 4, and dose response curves are given in the Supplementary Figures S3–S6.

[2] = system: BEAS-2B non-tumorigenic human bronchial epithelium; assay: MTT cytotoxicity assay BEAS-2B; format: cell-based; conditions: 72 h, read-out: IC50 BEAS-2B
Procedure: as §1, §2, §3

[3] = system: asexual blood stage P. falciparum NF54 (drug sensitive); assay: SYBR Green I proliferation assay, asexual blood stage Pf NF54; format: cell-based; conditions: Plasmodium falciparum, read-out: IC50 NF54
Procedure: In vitro cultivation of asexual and gametocyte P. falciparum parasites: P. falciparum asexual blood stage parasites were cultivated in human erythrocytes in RPMI-1640 media supplemented with AlbuMax II under sterile conditions and in a hypoxic environment (90% N2, 5% CO2, and 5% O2) at 37°C as described previously ([Coertzen et al., 2018]; [Wong et al., 2019]). Gametocytes were produced from asexual blood stage parasites in a stage-specific manner through induction of cellular stress as described previously ([Reader et al., 2015]; [Coertzen et al., 2018]; [Wong et al., 2019]; [Reader et al., 2022]).
DHA, artesunate, artemether, chloroquine (CQ), and methylene blue (MB) were used as reference drugs. All assay conditions are as previously described ([Coertzen et al., 2018]; [Wong et al., 2019]). […] Dose-responses were determined using a 2-fold serial drug dilution on in vitro 95% ring-stage intraerythrocytic Pf parasites (1% parasitemia, 1% hematocrit) at 37°C under 90% N2, 5% CO2, and 5% O2 atmospheric conditions, detecting SYBR green I fluorescence as a marker for parasite proliferation following a 96 h drug treatment ([Smilkstein et al., 2004]; [Verlinden et al., 2011]). Activity against the Pf drug-sensitive NF54 strain and the multi drug-resistant K1 (resistant to CQ, quinine, pyrimethamine, and cycloguanil), and W2 (resistant to CQ, quinine, pyrimethamine, and cycloguanil) strains was evaluated. […] Data analysis was performed using GraphPad Prism (version 6) software, intra-assay variability was monitored with Z-factors, and acceptable inter-assay reproducibility was determined from the percent coefficient of variation (CV) ([Reader et al., 2015]). […]
Activity was determined using the SYBR Green I based fluorescence assay on asexual blood stages of the NF54 (drug sensitive), K1 and W2 (drug resistant) strains of P. falciparum. […] Also included in Table 1 for direct comparison of activities against celastrol are data for the internal reference standards MB and artemisone recorded at the same time as for celastrol. […]

[4] = system: A549 human lung carcinoma; assay: MTT cytotoxicity assay A549; format: cell-based; conditions: for SI, selectivity index IC50 normal cell line/IC50 tumour cell line: BEAS-2B/A549; for IC50: Homo sapiens, read-out: IC50 A549
Procedure: as §1, §2, §3

[5] = system: asexual blood stage Pf NF54; assay: Fixed-ratio isobole drug combination assay (SYBR Green I); format: cell-based, Plasmodium falciparum
Procedure: The in vitro interactions of celastrol with artemisone and MB was determined using a fixed-ratio isobole analysis on Pf NF54 asexual parasites (SYBR Green I-based fluorescence). […] The fractional inhibitory concentration (FIC) for each drug in the combination was calculated as follows:
FIC = IC50 of drug A in combination with drug B/IC50 of drug A
The paired FIC values for the drugs in each combination were linearly plotted to provide the isobologram. The ΣFIC of FIC of drug A in combination with FIC of drug B was determined by calculating the mean FIC value, to obtain the representative FIC value for the drug combination. Data obtained were analysed in Excel, and sigmoidal dose-response curves and isobolograms were plotted using GraphPad 6.0. Experiments were performed in triplicate, and repeated 3 times.
As previously recorded for each of artemiside and artemisone in combination with MB ([Coertzen et al., 2018]), drug-drug interactions were monitored through evaluation of fractional inhibitory concentration (FIC) as determined by isobolograms. A mean ΣFIC<1.0 represents a synergistic interaction, >1.3 an antagonistic interaction and ΣFIC = 1 an indifferent or additive interaction. Isobologram analysis of the combinations of each of artemisone and MB in combination with celastrol was performed against the asexual stages of Pf NF54 using the SYBR Green I based assay. In Table 3 are shown the calculated FIC values for the independent combinations at each ratio as well as the ∑FIC values for each combination. In Figure 5 are presented the independent isoboles for each drug combination.

[6] = artemisone:celastrol drug ratio 20:80, Pf NF54
[7] = artemisone:celastrol drug ratio 40:60, Pf NF54
[8] = artemisone:celastrol drug ratio 60:40, Pf NF54
[9] = artemisone:celastrol drug ratio 80:20, Pf NF54

Structure (SMILES) | IC50 ([1]; MTT, ± SD) | IC50 ([2]; MTT, ± SD) | IC50 ([3]; NF54, asexual blood stage, SYBR Green I, 96 h, mean ± SEM, this study) | SI, selectivity index IC50 normal cell line/IC50 tumour cell line [4] | IC50 ([4]; A549, MTT, 72 h, ± SD) | FIC [5, 6] | FIC [5, 7] | FIC [5, 8] | FIC [5, 9] | IC50 [1] | IC50 [2] | IC50 ([3]; NF54, 96 h) | IC50 ([4]; A549, 72 h) | FIC ([5]; MB:celastrol drug ratio 40:60, Pf NF54) | FIC ([5]; MB:celastrol drug ratio 60:40, Pf NF54) | FIC ([5]; MB:celastrol drug ratio 80:20, Pf NF54)
C[C@H]1[C@H](N2CCS(=O)(=O)CC2)O[C@@H]2O[C@@]3(C)CC[C@H]4[C@H](C)CC[C@@H]1[C@@]24OO3 [Artemisone, artemisone] | > 100000 nM | 73600 ± 1400 nM | 2.32 ± 0.76 nM | <0.7 | > 100000 nM | 0.12 | 0.24 | 0.39 | 0.69 |  |  |  |  |  |  | 
CC1=C(O)C(=O)C=C2C1=CC=C1[C@@]2(C)CC[C@@]2(C)[C@@H]3C[C@](C)(C(=O)O)CC[C@]3(C)CC[C@]12C [Celastrol, celastrol] |  |  |  | 0.16 |  | 0.93 | 0.76 | 0.60 | 0.50 | 780 ± 200 nM | 450 ± 100 nM | 820 ± 190 nM | 2830 ± 120 nM | 1.02 | 0.72 | 0.41

From publication PMC9479156 (Frontiers in Pharmacology, 2022)
